Assays:
[1] = tested on: human surgical skin (skin resident immune cells), LPS; test: skin Resident Immune Cell Assay (sRICA), topical screening, TNFα protein expression; assay type: cell-based; settings: mean TNFα level in LPS treated samples set to 100%
Description: A skin Resident Immune Cell Assay (sRICA) was used to test compounds for reduction of inflammation. In this model, human surgical skin waste was cultured in a transwell system, with the dermis in contact with cell culture media and the stratum corneum exposed to air. To perform the assay, each human skin sample was defatted and dermatomed to 750 μm. Next, 8 mm punch biopsies were obtained and placed in a membrane transwell. The transwells were inserted into culture wells with complete media, and a cocktail of cytokines and antibodies were added to promote skin resident immune cell polarization. The transwells were treated with LPS as a positive control, a vehicle as a negative control, and various dual IRAK/TrkA inhibitors. TNFα protein expression was measured and the mean TNFa protein level in the LPS treated samples was set to 100%.
Overall results for all tested compounds are summarized below in Table 1. Results are expressed as a percentage of TNFα expression relative to the LPS treated sample.

[2] = tested on: rosacea lesional (LS) skin; test: RNAseq of treated lesional papulopustular rosacea biopsies; assay type: cell-based, human; settings: LS rosacea biopsy, 24 hours culture, 1 μM and 0.5 μM
Description: Five patients with mild-moderate, untreated, papulopustular rosacea (PPR) were enrolled and completed the study. Each patient donated 3 punch biopsies: 1 non-lesional (NL) and 2 lesional (LS) papules. Each biopsy was bisected, resulting in a total of 6 biopsy pieces. NL tissue was left untreated. […] Tissue was cultured in media at 37 C, 5% CO2 for 24 hours. After culture, the tissue was submerged in RNAlater for subsequent RNA isolation and RNA seq, and conditioned cell media was collected into 2×500 ul aliquots for proteomic analysis.
MMP-1 results are shown in FIG. 4A (RNAseq) and FIG. 4B (OLink); CXCL5 results are shown in FIG. 5A (RNAseq) and FIG. 5B (OLink); and IL-1(3 results are shown in FIG. 6A (RNAseq) and FIG. 6B (OLink).

[3] = tested on: rosacea lesional (LS) skin; test: OLink proteomics of treated lesional papulopustular rosacea biopsies; assay type: cell-based, human; settings: LS rosacea biopsy
Description: (§1) Five patients with mild-moderate, untreated, papulopustular rosacea (PPR) were enrolled and completed the study. Each patient donated 3 punch biopsies: 1 non-lesional (NL) and 2 lesional (LS) papules. Each biopsy was bisected, resulting in a total of 6 biopsy pieces. NL tissue was left untreated. LS tissue was either left untreated (vehicle), treated with a dual IRAK/TrkA inhibitor according to the present disclosure (1 uM or […]) or clobetasol (1 uM). Tissue was cultured in media at 37 C, 5% CO2 for 24 hours. After culture, the tissue was submerged in RNAlater for subsequent RNA isolation and RNA seq, and conditioned cell media was collected into 2×500 ul aliquots for proteomic analysis.
Proteomic analysis included use of the OLink platform. OLink proteomics, includes immunoassay, extension, preamplification, and detection by microfluidic qPCR, and has a high multiplex ability, but not absolute quantification of protein (only relative expression).
For the OLink proteomics platform, 40 μl of conditioned cell media was sent to OLINK proteomics for evaluation on their human Inflammation Panel (92 proteins):
Protein expression was measured from NL samples, untreated LS samples, and LS samples treated with the compound of Formula (Ia) at 1 μM, the compound of Formula (Ia) at 0.5 μM, or clobetasol at 1 μM. […] CXCL1, β-NGF, LIF, TGF-alpha, IL-8, and IL-6 are all proteins that have reduced expression in NL compared to LS samples.

[4] = tested on: rosacea lesional (LS) skin; test: MesoScale Discovery (MSD) immunoassay of treated lesional papulopustular rosacea biopsies; assay type: cell-based, human
Description: as §1
Next, the protein expression results obtained using the OLink platform were verified using MesoScale Discovery (MSD). MSD involves coating of carbon electrodes with multiple capture antibodies each coated onto discrete spots in the same plate, and is a multiplex platform that allows for absolute quantification of protein expression, as measured in pg/mL. For MSD quantification, 150 μl of conditioned cell media was analyzed using MSD platform using the human Cytokine 30-plex kit:
The protein expression analysis was repeated using the MSD platform.

[5] = 24 hours following treatment, 1 μM and 0.5 μM

CC(C)N1CCN(c2nn(C)cc2NC(=O)c2coc(-c3ccnc(NCC(F)(F)F)c3)n2)C1=O
TNFα Protein Expression (% relative to positive control) [1]: 90.44%

Cn1cc(NC(=O)c2coc(-c3ccnc(NCC(F)(F)F)c3)n2)c(N2CCNC2=O)n1
TNFα Protein Expression (% relative to positive control) [1]: 59.13%

CC1(C)CCN(c2nn(C3COC3)cc2NC(=O)c2coc(-c3ccnc(NCC(F)(F)F)c3)n2)C1=O
TNFα Protein Expression (% relative to positive control) [1]: 97.84%

CNCC1CN(c2nn(C)cc2NC(=O)c2coc(-c3ccnc(NCC(F)(F)F)c3)n2)C(=O)C1(C)C (centres unmarked) [drawing 30]
TNFα Protein Expression (% relative to positive control) [1]: 93.64%

Cn1cc(NC(=O)c2coc(-c3ccnc(NCC(F)(F)F)c3)n2)c(N2CCN(CCO)C2=O)n1 [Formula (Ia)]
CXCL5 RNA expression (RNAseq) [2]: significantly downregulated
IL-1β RNA expression (RNAseq) [2]: significantly downregulated
MMP-1 RNA expression (RNAseq) [2]: significantly downregulated
CXCL6 protein expression (OLink) ([3]; 24 hours following treatment): decreased expression
IL-24 protein expression (OLink) ([3]; 24 hours following treatment): decreased expression
MCP-1 protein expression (OLink) ([3]; 24 hours following treatment): decreased expression
NRTN protein expression (OLink) ([3]; 24 hours following treatment): decreased expression
CXCL1 protein expression (OLink) [3, 5]: statistically significant decrease in expression
IL-6 protein expression (OLink) [3, 5]: statistically significant decrease in expression
IL-8 protein expression (OLink) [3, 5]: statistically significant decrease in expression
LIF protein expression (OLink) [3, 5]: statistically significant decrease in expression
TGF-alpha protein expression (OLink) [3, 5]: statistically significant decrease in expression
β NGF protein expression (OLink) [3, 5]: statistically significant decrease in expression
CXCL5 protein expression (OLink) ([3]; 24 hours, 1 μM and 0.5 μM): downregulated
MMP-1 protein expression (OLink) ([3]; 24 hours, 1 μM and 0.5 μM): downregulated
protein expression profile (MSD) ([4]; compared with NL and LS profiles): more similar to the NL profile versus the LS profile
IL-10 protein expression (MSD) ([4]; p=0.002): decreased expression
IL-8 protein expression (MSD) ([4]; p=0.056): decreased expression
MCP-1 protein expression (MSD) ([4]; p=0.09): decreased expression
IL-4 protein expression (MSD) ([4]; p=0.12): decreased expression
IL-6 protein expression (MSD) ([4]; p=0.13): decreased expression
IL-5 protein expression (MSD) ([4]; p=0.2): decreased expression

CNCC1CN(c2nn(C)cc2NC(=O)c2coc(-c3ccnc(NCC(F)(F)F)c3)n2)C(=O)C1(C)C (centres unmarked) [drawing 29]
TNFα Protein Expression (% relative to positive control) [1]: 92.45%

CC(C)CN1CCN(c2nn(C)cc2NC(=O)c2coc(-c3ccnc(NCC(F)(F)F)c3)n2)C1=O
TNFα Protein Expression (% relative to positive control) [1]: 89.24%

Cn1cc(NC(=O)c2coc(-c3ccnc(NCC4CC4)c3)n2)c(N2CCN(CCO)C2=O)n1
TNFα Protein Expression (% relative to positive control) [1]: 74.41%

CC1C=C(CC(=O)c2coc(-c3ccnc(NCC(F)(F)F)c3)c2)C(C2CC(C)[C@H](C)C2=O)=C1 (some centres unmarked)
TNFα Protein Expression (% relative to positive control) [1]: 67.49%

Cn1cc(NC(=O)c2coc(-c3ccnc(NCC(F)(F)F)c3)n2)c(N2CC(CNC3CC3)C(C)(C)C2=O)n1 (centres unmarked)
TNFα Protein Expression (% relative to positive control) [1]: 72.95%

CN(C)CC1CN(c2nn(C)cc2NC(=O)c2coc(-c3ccnc(NCC(F)(F)F)c3)n2)C(=O)C1(C)C (centres unmarked)
TNFα Protein Expression (% relative to positive control) [1]: 86.94%

Cn1cc(NC(=O)c2coc(-c3ccnc(NCC(F)F)c3)n2)c(N2CCN(CCO)C2=O)n1
TNFα Protein Expression (% relative to positive control) [1]: 72.75%

C[C@H]1CCN(c2nn(C)cc2NC(=O)c2coc(-c3ccnc(NCC(F)(F)F)c3)n2)C1=O
TNFα Protein Expression (% relative to positive control) [1]: 92.45%

C=C(CC1=CC(C)C=C1C1CCC(CCC)C1=C)C1=CCC(c2cccc(CCC(C)(C)C)c2)=C1 (centres unmarked)
TNFα Protein Expression (% relative to positive control) [1]: 64.03%

Source: US20230125380A1, “Topical Compositions Comprising IRAK4 Inhibitors for Use in Treating Dermatological Conditions Characterised by Inflammation” (Dermira, Inc., priority 2019, published 2023)
